In patent US6362180B1, “Imidazopyridines for the treatment of neurological disorders” (Bristol-Myers Squibb Pharma Company, priority 1997, dated 2002):

CCc1nc2c(-c3ccc(OC)cc3Cl)ncnc2n1C(C1CC1)C1CC1 [Example 831, 6-(2-Chloro-4-methoxyphenyl)-9-dicyclopropylmethyl-8-ethylpurine] and CCc1nc2c(-c3cc4ccoc4cc3C)ncnc2n1C(C1CC1)C1CC1 [Example 5201, 9-dicyclopropylmethyl-8-ethyl-6-(6-methylbenzofuran-5-yl)purine] cannot be ordered by melting point: 139 to 140 °C for the first, 139 to 141 °C for the second.

First: CCc1nc2c(-c3cc4cc(Br)oc4cc3C)ncnc2n1C(C1CC1)C1CC1 [Example 5231, 6-(2-bromo-6-methylbenzofuran-5-yl)-9-dicyclopropylmethyl-8-ethylpurine]
Second: CCc1nc2c(-c3cc4c(cc3C)OCC4)ncnc2n1C(C1CC1)C1CC1 [Example 5001, 9-Dicyclopropylmethyl-8-ethyl-6-(6-methyl-2,3-dihydrobenzofuran-5-yl)purine]
The melting point of the first is higher: 177 to 178 °C for the first, 147 to 148 °C for the second.

First: CCCCC(CC)n1c(CC)nc2c(-c3c(C)cc(C)cc3C)ncnc21 (stereo not drawn) [Example 2, 8-Ethyl-9-(1-ethylpentyl)-6-(2,4,6-trimethylphenyl)purine]
Second: CCc1nc2c(-c3cc4c(c(Br)c3C)OCC4)ncnc2n1C(C1CC1)C1CC1 [Example 5232, 6-(7-bromo-6-methyl-2,3-dihydrobenzofuran-5-yl)-9-dicyclopropylmethyl-8-ethylpurine]
The melting point of the first is lower: 99 to 100 °C for the first, 179 to 180 °C for the second.
